In patent US5362724A, “Thioalkylthio carbacephalosporin derivatives” (Shionogi & Co., Ltd., priority 1992, dated 1994):
Values after ≈ are worked out from the molar mass of the structure shown.

Experiments:
E. coli JC-2 = assay: In vitro antibacterial activity (MIC, two-fold agar dilution) against E. coli JC-2; type: cell-based; settings: Escherichia coli, JC2
Description: (§1) The in vitro antibacterial activity of a compound as prepared in the foregoing Example was evaluated as follows. A compound to be tested was dissolved in 0.01N aqueous solution of sodium hydrogen carbonate and the solution was applied to an agar plate and the minimal inhibitory concentration (MIC) against each bacterium was measured by two-fold dilution method according to the standard method of the Japan Society of Chemotherapy.
(§2) In the assay, as a control compound, 7β-[(Z)-2-(2-amino-4-thiazolyl)-2-hydroxyiminoacetamido]-3-(1,2,3-triazol-4-yl)thiomethylthio-3-cephem-4-carboxylic acid (a thiomethylthio cephalosporin disclosed in U.S. patent application Ser. No. 07/729,413, filed on Jul. 12, 1991, now U.S. Pat. No. 5,214,037, and EPO Application Publication No. 0 467 647 A2) was used.
(§3) In the tables, Compound A is a compound of the invention and Compound B is a control compound.

E. coli EC-14 = assay: In vitro antibacterial activity (MIC, two-fold agar dilution) against E. coli EC-14; type: cell-based; settings: Escherichia coli, EC14
Description: as §1, §2, §3

E. coli SR377 = assay: In vitro antibacterial activity (MIC, two-fold agar dilution) against E. coli SR377; type: cell-based; settings: Escherichia coli
Description: as §1, §2, §3

E. coli SR73 = assay: In vitro antibacterial activity (MIC, two-fold agar dilution) against E. coli SR73; type: cell-based; settings: Escherichia coli
Description: as §1, §2, §3

K. pneumoniae SRI = assay: In vitro antibacterial activity (MIC, two-fold agar dilution) against K. pneumoniae SRI; type: cell-based; settings: Klebsiella pneumoniae
Description: as §1, §2, §3

E. cloacae SR233 = assay: In vitro antibacterial activity (MIC, two-fold agar dilution) against E. cloacae SR233; type: cell-based; settings: Enterobacter cloacae
Description: as §1, §2, §3

E. cloacae ATCC 13047 = assay: In vitro antibacterial activity (MIC, two-fold agar dilution) against E. cloacae ATCC 13047; type: cell-based; settings: Enterobacter cloacae, ATCC13047
Description: as §1, §2, §3

[1] = test system: S. maecescense ATCC 13880; assay: In vitro antibacterial activity (MIC, two-fold agar dilution) against S. marcescense ATCC 13880; type: cell-based, Seratia marcescense
Description: as §1, §2, §3

[2] = Binding ability to plasma proteins; type: in vitro ADME; settings: tentative value
[3] = In vivo pharmacokinetics, blood level in mice after administration; settings: mouse, 10 mg/kg, 3 hr after administration
Description: The in vivo pharmacokinetics was also investigated in mice by measuring the blood level at 3 hr after administrating a test compound to a mouse (10 mg/kg).
as §2, §3

Structure (SMILES) | MIC (E. coli JC-2) | MIC (E. coli EC-14) | MIC (E. coli SR377) | MIC (E. coli SR73) | MIC (K. pneumoniae SRI) | MIC (E. cloacae SR233) | MIC (E. cloacae ATCC 13047) | MIC [1] | fraction unbound [2] | concentration at 3 h [3]
Nc1nc(/C(=N/O)C(=O)N[C@@H]2C(=O)N3C(C(=O)O)=C(SCSc4c[nH]nn4)CC[C@H]23)cs1 [Compound A, 7β-[(Z)-2-(2-Aminothiazol-4-yl)-2-hydroxyiminoacetamido]-3-(1,2,3-triazol-4-ylthiomethylthio)-1-carba-3-cephem-4-carboxylic acid] | 0.05 µg/mL (≈ 0.101 µM) | 0.025 µg/mL (≈ 0.0503 µM) | 0.2 µg/mL (≈ 0.403 µM) | 0.39 µg/mL (≈ 0.785 µM) | 0.025 µg/mL (≈ 0.0503 µM) | 0.1 µg/mL (≈ 0.201 µM) | 12.5 µg/mL (≈ 25.2 µM) | 0.2 µg/mL (≈ 0.403 µM) | 0.1 | 82000 ng/mL
Nc1nc(/C(=N/O)C(=O)N[C@@H]2C(=O)N3C(C(=O)O)=C(SCSc4c[nH]nn4)CS[C@H]23)cs1 [Compound B, 7β-[(Z)-2-(2-amino-4-thiazolyl)-2-hydroxyiminoacetamido]-3-(1,2,3-triazol-4-yl)thiomethylthio-3-cephem-4-carboxylic acid] | 0.3 µg/mL (≈ 0.583 µM) | 0.1 µg/mL (≈ 0.194 µM) | 0.8 µg/mL (≈ 1.55 µM) | 1.6 µg/mL (≈ 3.11 µM) | 0.1 µg/mL (≈ 0.194 µM) | 0.8 µg/mL (≈ 1.55 µM) | 100 µg/mL (≈ 194 µM) | 3.2 µg/mL (≈ 6.22 µM) | 0.04 | 18000 ng/mL
